Measured values as given in patent US10214508B2, “Nitrogen-containing heterocyclic compound” (Takeda Pharmaceutical Company Limited, priority 2014, dated 2019).

How the values were obtained:
[1] = biological target: T1, human M1 receptor (hCHRM1) (Homo sapiens, UniProt P11229); test: Measurement of M1 receptor positive allosteric modulator (M1PAM) activity, calcium fluorescence (FLIPRtetra); format: cell-based; settings: 10 μM test compound with acetylcholine at EC20 (final 0.6-0.8 nM); 100% = acetylcholine 1 μM, 0% = DMSO; CHO-K1 cells expressing hCHRM1
T1 construct: expressed in transfected cells
T1 sequence (P11229 1-460): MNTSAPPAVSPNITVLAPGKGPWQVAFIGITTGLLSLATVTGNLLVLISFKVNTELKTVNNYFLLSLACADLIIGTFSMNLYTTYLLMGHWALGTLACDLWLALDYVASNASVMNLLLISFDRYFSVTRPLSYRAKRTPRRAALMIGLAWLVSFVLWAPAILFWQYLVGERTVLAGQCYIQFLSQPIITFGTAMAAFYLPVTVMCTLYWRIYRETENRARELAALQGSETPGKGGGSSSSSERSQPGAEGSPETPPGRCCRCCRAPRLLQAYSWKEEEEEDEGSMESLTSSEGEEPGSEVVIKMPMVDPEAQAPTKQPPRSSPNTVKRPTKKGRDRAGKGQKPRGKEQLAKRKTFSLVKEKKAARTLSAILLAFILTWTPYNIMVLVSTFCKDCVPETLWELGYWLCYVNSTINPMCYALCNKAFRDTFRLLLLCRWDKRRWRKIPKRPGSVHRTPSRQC
Outline: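 CHO-K1 cells stably expressing hM1 were Fluo-4-loaded; compound added with acetylcholine at EC20 (0.6-0.8 nM final), calcium fluorescence read 1 min on FLIPRtetra. Activity scaled between DMSO (0%) and 1 μM acetylcholine (100%); inflection point of concentration–response reported as IP.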

IP1 production = test: Measurement of myo-inositol 1 phosphate (IP1) in hippocampi after oral administration; format: in vivo, male Long-Evans rats; settings: rat hippocampus, relative to Vehicle administration group as 100%
Method: Measurement of Myo-Inositol 1 Phosphate (IP1)
Animals used were male Long-Evans rats. They were used after acclimation for at least 1 week. Test compounds were suspended in 0.5% (w/v) aqueous methylcellulose solution, and the suspension was orally administered to the rats. After a given time, lithium chloride was dissolved in saline and subcutaneously administered into the rats. After a given time, their bilateral hippocampi were isolated from the rats, and the wet weight thereof was measured. The isolated hippocampi were homogenized with HEPES buffer, followed by centrifugation. The IP1 and protein concentrations in the supernatant were measured by IP-One HTRF(R) assay kit (Cisbio Bioassays) and BCA protein assay kit (Thermo Scientific), respectively. The level of the IP1 production was expressed as the ratio of the concentration of IP1 to that of protein. The increase rate of the IP1 production was shown as a relative value when Vehicle administration group as 100%.

[2] = test system: Scopolamine-induced memory deficits models; test: Novel object recognition test; format: in vivo, male Long-Evans rats; settings: 2 hours before acquisition trial, scopolamine 0.1 mg/kg s.c., mean±standard error
Method: Novel Object Recognition Test Novel object recognition test is comprised of two trials called the acquisition and the retention trials. Scopolamine-induced memory deficits models were used for the test, and animals used were male Long-Evans rats (7-week-old). On the day before the test, for acclimation, the rats were allowed to freely move about the test box (40×40×50 cm) for 10 minutes. On the test day, the rats were acclimated to the test room for about for 1 hr prior to the test. The test compounds were orally administered to the rats in a single dose 2 hours before the acquisition trial. For induction of learning and memory deficits, scopolamine (0.1 mg/kg) was subcutaneously administered into the rats for 30 min before the acquisition trial. For the acquisition trial, two identical objects (A1, A2) were placed in the test box. The rats were put in the test box for 3 min, and the duration exploring each object was measured. The retention trial was performed for 4 hr after the acquisition trial. For the retention trial, one familiar object (A3) used for the acquisition trial and one novel object (B) having a different shape from A3 were placed in the test box. After setting the objects, the rats were introduced into the test box and retention trial was performed for 3 min. The duration for exploring each object in the acquisition trial and the retention trial was measured, and the exploration rate of novel object was calculated. The exploration rate of novel object was expressed as (the duration exploring the novel object)/[(the duration exploring the novel object)+(the duration exploring the familiar object)]×100(%) at mean±standard error.

| SMILES | activity (%) at 10 μM [1] | increase rate (%) of the IP1 production (IP1 production; 10 mg/kg) | exploration rate of novel object (%) ([2]; 10 mg/kg oral, control group 69.26±2.87%, solvent-scopolamine group 55.27±3.48%) | exploration rate of novel object (%) ([2]; 3 mg/kg oral, control group 66.74±3.01%, solvent-scopolamine group 47.48±3.66%) | increase rate (%) of the IP1 production (IP1 production; 3 mg/kg) | exploration rate of novel object (%) ([2]; 10 mg/kg oral, control group 66.74±3.01%, solvent-scopolamine group 47.48±3.66%) |
| --- | --- | --- | --- | --- | --- | --- |
| Cc1cnc(C(=O)N[C@H]2CCC[C@@H]2O)cc1Cc1ccc(-c2ccn(C)n2)cc1 [Example 1, N-((1S,2S)-2-hydroxycyclopentyl)-5-methyl-4-(4-(1-methyl-1H-pyrazol-3-yl)benzyl)pyridine-2-carboxamide] | 86% | 38% | 64.59±2.59% |  |  |  |
| Cc1nc(C(=O)N[C@H]2CCC[C@@H]2O)cc(Cc2ccc(-c3ccn(C)n3)cc2)c1C [Example 72, N-((1S,2S)-2-hydroxycyclopentyl)-5,6-dimethyl-4-(4-(1-methyl-1H-pyrazol-3-yl)benzyl)pyridine-2-carboxamide] | 105% | 70% |  | 53.16±2.80% |  |  |
| Cc1nc(C(=O)N[C@H]2CCCC[C@@H]2O)cc(Cc2ccc(-c3ccn(C)n3)nc2)c1C [Example 74, N-((1S,2S)-2-hydroxycyclohexyl)-5,6-dimethyl-4-((6-(1-methyl-1H-pyrazol-3-yl)pyridin-3-yl)methyl)pyridine-2-carboxamide] | 103% |  |  |  | 22% | 55.14±1.48% |
| Cc1nc(C(=O)N[C@H]2COCC[C@@H]2O)cc(Cc2ccc(Cl)nc2)c1C [Example 85, 1,5-anhydro-2-(((4-((6-chloropyridin-3-yl)methyl)-5,6-dimethylpyridin-2-yl)carbonyl)amino)-2,4-dideoxy-L-threo-pentitol] | 99% |  |  |  |  |  |
